Measurements from patent publication US20250304927A1, “PRO-PEPTIDE VARIANTS FOR MODULATING ACTIVITY OF TRANSGLUTAMINASES” (CURIE CO. INC., priority 2022, published 2025).
Where no end group is shown, it is not given here.

T1: thermostable variant of Streptomyces mobaraensis transglutaminase (Streptomyces mobaraensis, UniProt P81453 79-407)
T1 sequence: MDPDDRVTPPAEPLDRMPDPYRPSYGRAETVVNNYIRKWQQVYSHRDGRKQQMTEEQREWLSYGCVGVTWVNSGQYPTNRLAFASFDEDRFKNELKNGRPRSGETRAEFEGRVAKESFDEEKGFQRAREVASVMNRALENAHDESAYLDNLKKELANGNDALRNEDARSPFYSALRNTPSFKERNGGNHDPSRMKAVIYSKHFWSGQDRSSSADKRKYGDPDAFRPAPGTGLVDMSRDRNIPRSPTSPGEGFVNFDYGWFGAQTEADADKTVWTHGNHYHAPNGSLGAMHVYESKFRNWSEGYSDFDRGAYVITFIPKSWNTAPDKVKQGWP

T2: evolved variant of mature Streptomyces mobaraensis transglutaminase, including a two amino acid linker and … (Streptomyces mobaraensis, UniProt P81453 79-407)
T2 chain: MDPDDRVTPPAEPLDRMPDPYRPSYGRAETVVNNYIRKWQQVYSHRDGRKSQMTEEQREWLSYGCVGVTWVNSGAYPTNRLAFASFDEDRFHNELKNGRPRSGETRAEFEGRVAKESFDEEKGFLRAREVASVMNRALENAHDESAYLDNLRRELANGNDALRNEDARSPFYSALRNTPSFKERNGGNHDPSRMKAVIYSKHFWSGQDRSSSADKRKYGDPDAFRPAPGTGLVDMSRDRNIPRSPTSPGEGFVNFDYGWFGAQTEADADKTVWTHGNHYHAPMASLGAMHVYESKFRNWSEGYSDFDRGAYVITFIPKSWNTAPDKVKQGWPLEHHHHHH


The molecules below were run against T1, thermostable variant of Streptomyces … (assay: cell-based or functional assay). Conditions: not given.

Molecule | Improvement in pH responsiveness of inhibitory peptide relative to WT
MDNGAGEETKSYAETYRLTADDVANYNALNESAPAASSAGPSFRAP [pro-peptide variant I26Y] | > 1.2 fold

Target: T1, thermostable variant of Streptomyces …
Assay: cell-based or functional assay
Conditions: not given
Remark: another data set of the same source

Molecule | Reduction in binding affinity of inhibitory peptide relative to WT
MDNGAGEETKSYAETYRLTADDVANYNALNESAPAASSAGPSFRAP [pro-peptide variant I26Y] | > 1.2 fold

Target: T2, evolved variant of mature Streptomyces …
Assay: cell-based or functional assay
Conditions: not given

Molecule | Inhibition
MSNGAGSETKSYAETYRLTADQVANINALNESAPAASSAGPSFRAP [pro-peptide variant D2S, E7S, D22Q (Method B)] | > 2 fold

These molecules were tested against T3, thermostable mature transglutaminase variant (SEQ ID NO: 3) (Streptomyces mobaraensis, UniProt P81453) (assay: not given). Conditions: increase in transglutaminase activity relative to wild-type pro-peptide, casein assay; Method A.
T3 construct: made in house; host or cells: E. coli (lysate)
Assay type: biochemical
Description: Method A. A bicistronic expression vector encoding the wild-type pro-domain of transglutaminase (SEQ ID NO: 2) and a thermostable mature transglutaminase variant (SEQ ID NO: 3) as separate polypeptides was cloned as described in PCT/US20/49226 (WO2021/178001 A1). The vector was used as a template for synthesis of a random mutagenesis library targeting the pro-domain coding sequence to create pro-domain peptide variants.
Method A. Plasmid libraries containing mature transglutaminase and variant pro-domain peptides were plated on Luria-Bertani (LB) agar plates containing 50 μg/mL of kanamycin. After incubation for at least 16 hours at 37° C., colonies were picked and inoculated into 1 mL of LB broth with 50 μg/mL kanamycin in one well of a 96 deep well culture plate. The plate was covered with a breathable seal and incubated overnight at 37° C. with 400 rpm of shaking. 10 μL of the seed culture was used to inoculate 1 mL of media in a 96 deep well culture plate for expression. The expression plate was allowed to grow for 6-8 hours at 30° C. Expression was then induced by adding isopropyl beta-D-1-thiogalactopyranoside (IPTG) to a final concentration of 1 mM and the temperature was reduced to 20° C. while growth continued for an additional 15 hours. Cells were harvested by centrifugation at 4000 rcf for 30 minutes and pellets were frozen at −80° C.
A secondary screen was performed to determine initial rate of transglutaminase in the presence of the pro-peptide variants using transglutaminase-catalyzed labeling of casein with dansylcadaverine (e.g., a commercially available kit such as the Transglutaminase Fluorogenic Activity Assay Kit, T036, Zedira, Germany). Transglutaminase activity was monitored by measuring the fluorescence (excitation wavelength 332 nm; emission wavelength 500 nm) using a BioTek Synergy H1 microplate reader. Transglutaminase-catalyzed covalent coupling (crosslinking) of monodansylcadaverine with N,N-dimethylcasein produces a product that causes a shift in intensity and wavelength of fluorescence of the dansyl group now linked to the casein. The relative transglutaminase activity is shown by increase of fluorescence intensity over time. The data were normalized for transglutaminase expression levels in E. coli lysate as described above. Pro-domain variants were identified based on their ability to alter the activity of the mature transglutaminase enzyme. […]
It is believed that these pro-peptide variants have reduced binding affinity with mature mTgase.

Molecule | Reduction in binding affinity of inhibitory peptide relative to WT
MDNGAGEYTKSYAETYRLTADDVANINALNESAPAASSAGPSFRAP [Variant E8Y] | >1.2 fold
MDNGAGEETKSYAETYR [ΔL18-P46] | >1.2 fold
MDNGAGEETDSYAETYRLTADDVANINALNESAPAASSAGPSFRAP [Variant K10D] | >1.2 fold
MDNGAGEETKSYAVTYRLTADDVANINALNESAPAASSAGPSFRAP [Variant E14V] | >1.2 fold
MDNGAGEETKS [ΔY12-P46] | >1.2 fold
MDNGAGEETKSYAETYRLTADDVANINALNESAPAASYAGPSFRAP [Variant S38Y] | >1.2 fold
MDNGAGEETKSYAETYRLTADYVANINALNESAPAASSAGPSFRAP [Variant D22Y] | >1.2 fold
MDNGAGEETKSYAETYRLTADDVANANALNESAPAASSAGPSFRAP [Variant I26A] | >1.2 fold
MDNGAGEETKSYAETYRSTADDVANINALNESAPAASSAGPSFRAP [Variant L18S] | >1.2 fold
MDNGAGEETKSYAGTYRLTADDVANINALNESAPAASSAGPSFRAP [Variant E14G] | >1.2 fold
MDNGAGEETKSYAETYRKTADDVANINALNESAPAASSAGPSFRAP [Variant L18K] | >1.2 fold
MDNGAGEETKSYAETYRWTADDVANINALNESAPAASSAGPSFRAP [Variant L18W] | >1.2 fold
MDNGAGEETCSYAETYRLTADDVANINALNESAPAASSAGPSFRAP [Variant K10C] | >1.2 fold
MDNGAGEETKSLAETYRLTADDVANINALNESAPAASSAGPSFRAP [Variant Y12L] | >1.2 fold
MDNGAGEETGSYAETYRLTADDVANINALNESAPAASSAGPSFRAP [Variant K10G] | >1.2 fold
MDNGAGEETKSYAETYRLTADPVANINALNESAPAASSAGPSFRAP [Variant D22P] | >1.2 fold
MDNGAGEETKKYAETYRLTADDVANINALNESAPAASSAGPSFRAP [Variant S11K] | >1.2 fold
MDNGAGEETKSGAETYRLTADDVANINALNESAPAASSAGPSFRAP [Variant Y12G] | >1.2 fold
MDNGAGEETKSNAETYRLTADDVANINALNESAPAASSAGPSFRAP [Variant Y12N] | >1.2 fold
MDNGAGEETKSYACTYRLTADDVANINALNESAPAASSAGPSFRAP [Variant E14C] | >1.2 fold
MDNGAGEETRSYAETYRLTADDVANINALNESAPAASSAGPSFRAP [Variant K10R] | >1.2 fold
MDNGAGEETKSYAETYRLTADDVANENALNESAPAASSAGPSFRAP [Variant I26E] | >1.2 fold
MDNGAGEETKHYAETYRLTADDVANINALNESAPAASSAGPSFRAP [Variant S11H] | >1.2 fold
MDNGAGEETKSYAETYRLTADDVANINALNESAPAASDAGPSFRAP [Variant S38D] | >1.2 fold

Molecule | Reduction in binding affinity of inhibitory peptide relative to WT
MDNGAGEETKSYAETYRLTADDVAN [ΔI26-P46] | >1.2 fold
MDNGAGEETKSYARTYRLTADDVANINALNESAPAASSAGPSFRAP [Variant E14R] | >1.2 fold
MDNGAGEETKSYAETYRLTADDVANYNALNESAPAASSAGPSFRAP [Variant I26Y] | >1.2 fold
MDNGAGEETKSTAETYRLTADDVANINALNESAPAASSAGPSFRAP [Variant Y12T] | >1.2 fold
MDNGAGEETKSPAETYRLTADDVANINALNESAPAASSAGPSFRAP [Variant Y12P] | >1.2 fold
MDNGAGEETKYYAETYRLTADDVANINALNESAPAASSAGPSFRAP [Variant S11Y] | >1.2 fold
MDNGAGEETKSVAETYRLTADDVANINALNESAPAASSAGPSFRAP [Variant Y12V] | >1.2 fold
MDNGAGEETKSYAETYRLTAD [ΔD22-P46] | >1.2 fold
MDNGAGEETKSYANTYRLTADDVANINALNESAPAASSAGPSFRAP [Variant E14N] | >1.2 fold
MDNGAGEETKSYAETYRLTADRVANINALNESAPAASSAGPSFRAP [Variant D22R] | >1.2 fold
MDNGAGEETKSYAHTYRLTADDVANINALNESAPAASSAGPSFRAP [Variant E14H] | >1.2 fold
MDNGAGEETKSSAETYRLTADDVANINALNESAPAASSAGPSFRAP [Variant Y12S] | >5 fold
MDNGAGEEQKSYAETYRLTADDVANINALNESAPAASSAGPSFRAP [Variant T9Q] | >1.2 fold
MDNGAGEETKSYAATYRLTADDVANINALNESAPAASSAGPSFRAP [Variant E14A] | >1.2 fold
MDNGAGEETKGYAETYRLTADDVANINALNESAPAASSAGPSFRAP [Variant S11G] | >5 fold
MDNGAGEETKSYAETYRLTADGVANINALNESAPAASSAGPSFRAP [Variant D22G] | >1.2 fold
MDNGAGEETKLYAETYRLTADDVANINALNESAPAASSAGPSFRAP [Variant S11L] | >1.2 fold
MDNGAGEETKSYAETYRLTADDVANINALNESAPAASPAGPSFRAP [Variant S38P] | >1.2 fold
MDNGAGEETKSYAETYRLTADQVANINALNESAPAASSAGPSFRAP [Variant D22Q] | >1.2 fold
MDNGAGEETKSYAETYRETADDVANINALNESAPAASSAGPSFRAP [Variant L18E] | >1.2 fold
MDNGAGEETKSYADTYRLTADDVANINALNESAPAASSAGPSFRAP [Variant E14D] | >1.2 fold
MDNGAGEETKSYATTYRLTADDVANINALNESAPAASSAGPSFRAP [Variant E14T] | >1.2 fold
MDNGAGGETKSYAETYRLTADDVANINALNESAPAASSAGPSFRAP [Variant E7G] | >1.2 fold
